Source: patent US20260345619A1 (Principia Biopharma Inc., priority 2023, published 2026)

Test: Pre-bronchodilator FEV1 and percent predicted FEV1 by spirometry, change from baseline
Format: in vivo, human
Details: for Change from baseline in pre-bronchodilator FEV1, LS Mean (SE) / Change from baseline in pre-bronchodilator FEV1, LS Mean Diff vs. placebo (95% CI) / Change from baseline in pre-bronchodilator FEV1, Mean (SD): EOT (Week 12); for FEV1 change / improvement (in words): following ICS/LABA withdrawal, both cohorts
Description: Spirometry is a standard test to measure patients' lung function.
The primary endpoint was the proportion of patients with LOAC. The key secondary endpoint for the study was change in pre-bronchodilator FEV1 from baseline at EOT.
Reversibility is defined as an increase of the absolute FEV1 after administration of bronchodilator and is measured by spirometry as postbronchodilator increase in FEV1 in percent of the prebronchodilator FEV1. After spirometry for measuring prebronchodilator FEV1, participants were to receive 2-4 puffs of albuterol/salbutamol or levalbuterol/levosalbutamol from a primed MDI. The postbronchodilator spirometry may have been repeated several times within 30 minutes after administration of bronchodilator. Alternatively, and only if it was consistent with usual office practice (to be documented), reversibility may have been performed using inhalation of nebulized albuterol/salbutamol or levalbuterol/levosalbutamol.
Secondary endpoints included pre-bronchodilator FEV1 change from baseline at EOT, ACQ-5 score change from baseline, and AQLQ score change from baseline. Other secondary and exploratory endpoints are described in Table 2.

[1] = 400 mg TID, Week 12, baseline FeNO ≥35 ppb
[2] = 400 mg TID, Week 12, baseline IgA <2190 mg/L (median)
[3] = 400 mg TID, Week 12, baseline IgA ≥2190 mg/L (median)
[4] = 400 mg TID, Week 12, baseline IgE <100 IU/mL
[5] = 400 mg TID, Week 12, baseline IgE <121.85 IU/mL (median)
[6] = 400 mg TID, Week 12, baseline IgE ≥100 IU/mL
[7] = 400 mg TID, Week 12, baseline IgE ≥121.85 IU/mL (median)
[8] = 400 mg TID, Week 12, baseline blood eosinophils <0.15 10^9/L
[9] = 400 mg TID, Week 12, baseline blood eosinophils <0.3 10^9/L
[10] = 400 mg TID, Week 12, baseline blood eosinophils ≥0.15-<0.3 10^9/L
[11] = 400 mg TID, Week 12, baseline blood eosinophils ≥0.3 10^9/L
[12] = 400 mg TID, Week 12, baseline percent predicted FEV1 <77% (median)
[13] = 400 mg TID, Week 12, baseline percent predicted FEV1 <80%
[14] = 400 mg TID, Week 12, baseline percent predicted FEV1 ≥77% (median)
[15] = 400 mg TID, Week 12, baseline percent predicted FEV1 ≥80%
[16] = 400 mg TID, Week 12, baseline weight ≥60-<90 kg
[17] = 400 mg TID, Week 12, baseline weight ≥90 kg
[18] = 400 mg TID, Week 12, smoking history Former
[19] = 400 mg TID, Week 12, smoking history Never
[20] = 400 mg TID, low EOS (<0.15) and low FeNO (<25), mITT
[21] = 400 mg TID, Week 2, observed/LOCF imputed, mITT
[22] = 400 mg TID, Week 4, observed/LOCF imputed, mITT
[23] = 400 mg TID, Week 6, observed/LOCF imputed, mITT
[24] = 400 mg TID, Week 8, observed/LOCF imputed, mITT
[25] = 400 mg TID, Week 10, observed/LOCF imputed, mITT
[26] = 400 mg TID, Week 12 (EOT), MMRM supplementary analysis, mITT
[27] = 400 mg TID, Week 12 (EOT), MMRM, mITT
[28] = 400 mg TID, Week 12, observed/LOCF imputed, mITT
[29] = 400 mg TID, Week 12, reduced model, mITT

Structure (SMILES): CC(C)(C=C(C#N)C(=O)N1CCC[C@@H](n2nc(-c3ccc(Oc4ccccc4)cc3F)c3c(N)ncnc32)C1)N1CCN(C2COC2)CC1 (mixture of isomers) [rilzabrutinib, (R)-2-[3-[4-amino-3-(2-fluoro-4-phenoxy-phenyl)pyrazolo[3,4-d]pyrimidin-1-yl]piperidine-1-carbonyl]-4-methyl-4-[4-(oxetan-3-yl)piperazin-1-yl]pent-2-enenitrile]
- Pre-bronchodilator FEV1 change from baseline, LS Mean Diff vs. placebo [1]: -0.12 L
- Pre-bronchodilator FEV1 change from baseline, Mean [1]: -0.07 L
- Pre-bronchodilator FEV1 change from baseline, LS Mean [2]: -0.12 L
- Pre-bronchodilator FEV1 change from baseline, LS Mean Diff vs. placebo [2]: -0.09 L
- Pre-bronchodilator FEV1 change from baseline, Mean [2]: -0.12 L
- Pre-bronchodilator FEV1 change from baseline, LS Mean [3]: -0.15 L
- Pre-bronchodilator FEV1 change from baseline, LS Mean Diff vs. placebo [3]: -0.09 L
- Pre-bronchodilator FEV1 change from baseline, Mean [3]: -0.17 L
- Pre-bronchodilator FEV1 change from baseline, LS Mean [4]: -0.10 L
- Pre-bronchodilator FEV1 change from baseline, LS Mean Diff vs. placebo [4]: -0.11 L
- Pre-bronchodilator FEV1 change from baseline, Mean [4]: -0.20 L
- Pre-bronchodilator FEV1 change from baseline, LS Mean [5]: -0.16 L
- Pre-bronchodilator FEV1 change from baseline, LS Mean Diff vs. placebo [5]: -0.08 L
- Pre-bronchodilator FEV1 change from baseline, Mean [5]: -0.17 L
- Pre-bronchodilator FEV1 change from baseline, LS Mean [6]: -0.13 L
- Pre-bronchodilator FEV1 change from baseline, LS Mean Diff vs. placebo [6]: -0.07 L
- Pre-bronchodilator FEV1 change from baseline, Mean [6]: -0.12 L
- Pre-bronchodilator FEV1 change from baseline, LS Mean [7]: -0.33 L
- Pre-bronchodilator FEV1 change from baseline, LS Mean Diff vs. placebo [7]: -0.11 L
- Pre-bronchodilator FEV1 change from baseline, Mean [7]: -0.13 L
- Pre-bronchodilator FEV1 change from baseline, LS Mean [8]: -0.17 L
- Pre-bronchodilator FEV1 change from baseline, LS Mean Diff vs. placebo [8]: -0.05 L
- Pre-bronchodilator FEV1 change from baseline, Mean [8]: -0.17 L
- Pre-bronchodilator FEV1 change from baseline, LS Mean [9]: -0.13 L
- Pre-bronchodilator FEV1 change from baseline, LS Mean Diff vs. placebo [9]: -0.05 L
- Pre-bronchodilator FEV1 change from baseline, Mean [9]: -0.15 L
- Pre-bronchodilator FEV1 change from baseline, LS Mean [10]: -0.04 L
- Pre-bronchodilator FEV1 change from baseline, LS Mean Diff vs. placebo [10]: -0.04 L
- Pre-bronchodilator FEV1 change from baseline, Mean [10]: -0.10 L
- Pre-bronchodilator FEV1 change from baseline, LS Mean [11]: -0.16 L
- Pre-bronchodilator FEV1 change from baseline, LS Mean Diff vs. placebo [11]: -0.20 L
- Pre-bronchodilator FEV1 change from baseline, Mean [11]: -0.16 L
- Pre-bronchodilator FEV1 change from baseline, LS Mean [12]: -0.03 L
- Pre-bronchodilator FEV1 change from baseline, LS Mean Diff vs. placebo [12]: -0.04 L
- Pre-bronchodilator FEV1 change from baseline, Mean [12]: -0.10 L
- Pre-bronchodilator FEV1 change from baseline, LS Mean [13]: -0.09 L
- Pre-bronchodilator FEV1 change from baseline, LS Mean Diff vs. placebo [13]: -0.08 L
- Pre-bronchodilator FEV1 change from baseline, Mean [13]: -0.13 L
- Pre-bronchodilator FEV1 change from baseline, LS Mean [14]: -0.21 L
- Pre-bronchodilator FEV1 change from baseline, LS Mean Diff vs. placebo [14]: -0.13 L
- Pre-bronchodilator FEV1 change from baseline, Mean [14]: -0.19 L
- Pre-bronchodilator FEV1 change from baseline, LS Mean [15]: -0.20 L
- Pre-bronchodilator FEV1 change from baseline, LS Mean Diff vs. placebo [15]: -0.11 L
- Pre-bronchodilator FEV1 change from baseline, Mean [15]: -0.17 L
- Pre-bronchodilator FEV1 change from baseline, LS Mean [16]: -0.13 L
- Pre-bronchodilator FEV1 change from baseline, LS Mean Diff vs. placebo [16]: -0.07 L
- Pre-bronchodilator FEV1 change from baseline, Mean [16]: -0.15 L
- Pre-bronchodilator FEV1 change from baseline, LS Mean [17]: -0.15 L
- Pre-bronchodilator FEV1 change from baseline, LS Mean Diff vs. placebo [17]: -0.05 L
- Pre-bronchodilator FEV1 change from baseline, Mean [17]: -0.17 L
- Pre-bronchodilator FEV1 change from baseline, LS Mean (400 mg TID, Week 12, female): -0.11 L
- Pre-bronchodilator FEV1 change from baseline, LS Mean Diff vs. placebo (400 mg TID, Week 12, female): -0.09 L
- Pre-bronchodilator FEV1 change from baseline, Mean (400 mg TID, Week 12, female): -0.14 L
- Pre-bronchodilator FEV1 change from baseline, LS Mean (400 mg TID, Week 12, male): -0.15 L
- Pre-bronchodilator FEV1 change from baseline, LS Mean Diff vs. placebo (400 mg TID, Week 12, male): -0.09 L
- Pre-bronchodilator FEV1 change from baseline, Mean (400 mg TID, Week 12, male): -0.16 L
- Pre-bronchodilator FEV1 change from baseline, LS Mean [18]: -0.12 L
- Pre-bronchodilator FEV1 change from baseline, LS Mean Diff vs. placebo [18]: -0.05 L
- Pre-bronchodilator FEV1 change from baseline, Mean [18]: -0.21 L
- Pre-bronchodilator FEV1 change from baseline, LS Mean [19]: -0.13 L
- Pre-bronchodilator FEV1 change from baseline, LS Mean Diff vs. placebo [19]: -0.09 L
- Pre-bronchodilator FEV1 change from baseline, Mean [19]: -0.15 L
- Difference vs. placebo, LS mean change in pre-bronchodilator FEV1 (L) at Week 12 (400 mg TID, 95% CI −0.21, 0.03, p=0.1523): -0.09 L
- Change from baseline in pre-bronchodilator FEV1, LS Mean (SE) (400 mg TID, all others, mITT): -0.09 L
- Change from baseline in pre-bronchodilator FEV1, LS Mean Diff vs. placebo (95% CI) (400 mg TID, all others, mITT): -0.07 L
- Change from baseline in pre-bronchodilator FEV1, Mean (SD) (400 mg TID, all others, mITT, n=30): -0.11 L
- Change from baseline in pre-bronchodilator FEV1, LS Mean (SE) [20]: -0.20 L
- Change from baseline in pre-bronchodilator FEV1, LS Mean Diff vs. placebo (95% CI) [20]: -0.14 L
- Change from baseline in pre-bronchodilator FEV1, Mean (SD) (400 mg TID, low EOS (<0.15) and low FeNO (<25), mITT, n=16): -0.24 L
- LS Mean change from baseline in pre-bronchodilator FEV1 (L) at Week 12 (400 mg TID, N=64, mITT): −0.13 (0.05) L
- Pre-bronchodilator FEV1, mean [21]: 2.47 L
- Pre-bronchodilator FEV1, median [21]: 2.37 L
- Pre-bronchodilator FEV1 change from baseline, LS Mean [21]: -0.05 L
- Pre-bronchodilator FEV1 change from baseline, LS Mean Diff vs. placebo [21]: -0.04 L
- Pre-bronchodilator FEV1 change from baseline, Mean [21]: -0.04 L
- Pre-bronchodilator FEV1 change from baseline, median [21]: -0.02 L
- Pre-bronchodilator FEV1, mean [22]: 2.58 L
- Pre-bronchodilator FEV1, median [22]: 2.50 L
- Pre-bronchodilator FEV1 change from baseline, LS Mean [22]: -0.01 L
- Pre-bronchodilator FEV1 change from baseline, LS Mean Diff vs. placebo [22]: 0.05 L
- Pre-bronchodilator FEV1 change from baseline, Mean [22]: 0.02 L
- Pre-bronchodilator FEV1 change from baseline, median [22]: -0.01 L
- Pre-bronchodilator FEV1, mean [23]: 2.52 L
- Pre-bronchodilator FEV1, median [23]: 2.37 L
- Pre-bronchodilator FEV1 change from baseline, LS Mean [23]: -0.07 L
- Pre-bronchodilator FEV1 change from baseline, LS Mean Diff vs. placebo [23]: 0.04 L
- Pre-bronchodilator FEV1 change from baseline, Mean [23]: -0.07 L
- Pre-bronchodilator FEV1 change from baseline, median [23]: -0.09 L
- Pre-bronchodilator FEV1, mean [24]: 2.41 L
- Pre-bronchodilator FEV1, median [24]: 2.38 L
- Pre-bronchodilator FEV1 change from baseline, LS Mean [24]: -0.07 L
- Pre-bronchodilator FEV1 change from baseline, LS Mean Diff vs. placebo [24]: 0.03 L
- Pre-bronchodilator FEV1 change from baseline, Mean [24]: -0.12 L
- Pre-bronchodilator FEV1 change from baseline, median [24]: -0.10 L
- Pre-bronchodilator FEV1, mean [25]: 2.53 L
- Pre-bronchodilator FEV1, median [25]: 2.50 L
- Pre-bronchodilator FEV1 change from baseline, LS Mean [25]: -0.09 L
- Pre-bronchodilator FEV1 change from baseline, LS Mean Diff vs. placebo [25]: 0.00 L
- Pre-bronchodilator FEV1 change from baseline, Mean [25]: -0.10 L
- Pre-bronchodilator FEV1 change from baseline, median [25]: -0.09 L
- Change from baseline in pre-bronchodilator FEV1, Mean [26]: -0.14 L
- Change from baseline in pre-bronchodilator FEV1, Median [26]: -0.09 L
- Pre-bronchodilator FEV1, Mean [26]: 2.46 L
- Pre-bronchodilator FEV1, Median [26]: 2.40 L
- Change from baseline in pre-bronchodilator FEV1, LS Mean [27]: -0.16 L
- Change from baseline in pre-bronchodilator FEV1, LS Mean diff vs. placebo [27]: -0.08 L
- Change from baseline in pre-bronchodilator FEV1, Mean [28]: -0.15 L
- Change from baseline in pre-bronchodilator FEV1, Median [28]: -0.12 L
- Pre-bronchodilator FEV1, Mean [28]: 2.43 L
- Pre-bronchodilator FEV1, Median [28]: 2.39 L
- Pre-bronchodilator FEV1, mean [28]: 2.43 L
- Pre-bronchodilator FEV1, median [28]: 2.39 L
- Pre-bronchodilator FEV1 change from baseline, LS Mean [28]: -0.13 L
- Pre-bronchodilator FEV1 change from baseline, LS Mean Diff vs. placebo [28]: -0.09 L
- Pre-bronchodilator FEV1 change from baseline, Mean [28]: -0.15 L
- Pre-bronchodilator FEV1 change from baseline, median [28]: -0.12 L
- Change from baseline in pre-bronchodilator FEV1, LS Mean [29]: -0.13 L
- Change from baseline in pre-bronchodilator FEV1, LS Mean diff vs. placebo [29]: -0.09 L
- FEV1 change / improvement (in words): did not exhibit any change in FEV1
- FEV1 change / improvement (in words) (listed as Rilzabrutinib): not associated with an improvement in FEV1 values
